In ChEMBL document CHEMBL2380212, “Synthesis, single crystal and antitumor activities of benzimidazole-quinazoline hybrids” (Bioorg Med Chem Lett, 2013):

How the values were obtained:
[1] = n-Octanol-phosphate buffer partition coefficient, log P of the compound at pH 7.4 by shake flask method; format: physicochemical
[2] = test system: MDA-MB-468; test: Cytotoxicity against human MDA-MB-468 cells at 10 uM after 48 hrs by SRB assay; format: functional; settings: MDA-MB-468, 48 h, read-out: GI
[3] = test system: T47D; test: Cytotoxicity against human T47D cells at 10 uM after 48 hrs by SRB assay; format: functional; settings: read-out: GI
[4] = test system: MDA-MB-231; test: Cytotoxicity against human MDA-MB-231 cells at 10 uM after 48 hrs by SRB assay; format: functional; settings: MDA-MB-231, 48 h, read-out: GI
[5] = test system: DU-145; test: Cytotoxicity against human DU145 cells at 10 uM after 48 hrs by SRB assay; format: functional; settings: DU-145, 48 h, read-out: GI
[6] = test system: UO-31; test: Cytotoxicity against human UO31 cells at 10 uM after 48 hrs by SRB assay; format: functional; settings: UO-31, 48 h, read-out: GI
[7] = test system: PC-3; test: Cytotoxicity against human PC3 cells at 10 uM after 48 hrs by SRB assay; format: functional; settings: PC-3, 48 h, read-out: GI
[8] = test system: RXF 393; test: Cytotoxicity against human RXF393 cells at 10 uM after 48 hrs by SRB assay; format: functional; settings: RXF 393, 48 h, read-out: GI
[9] = test system: SN12C; test: Cytotoxicity against human SN12C cells at 10 uM after 48 hrs by SRB assay; format: functional; settings: read-out: GI
[10] = test system: ACHN; test: Cytotoxicity against human ACHN cells at 10 uM after 48 hrs by SRB assay; format: functional; settings: read-out: GI
[11] = test system: 786-0; test: Cytotoxicity against human 786-0 cells at 10 uM after 48 hrs by SRB assay; format: functional; settings: 786-0, 48 h, read-out: GI
[12] = test system: SK-OV-3; test: Cytotoxicity against human SKOV3 cells at 10 uM after 48 hrs by SRB assay; format: functional; settings: SK-OV-3, 48 h, read-out: GI
[13] = test system: OVCAR-8; test: Cytotoxicity against human OVCAR8 cells at 10 uM after 48 hrs by SRB assay; format: functional; settings: OVCAR-8, 48 h, read-out: GI
[14] = test system: OVCAR-5; test: Cytotoxicity against human OVCAR5 cells at 10 uM after 48 hrs by SRB assay; format: functional; settings: OVCAR-5, 48 h, read-out: GI
[15] = test system: OVCAR-4; test: Cytotoxicity against human OVCAR4 cells at 10 uM after 48 hrs by SRB assay; format: functional; settings: OVCAR-4, 48 h, read-out: GI
[16] = test system: OVCAR-3; test: Cytotoxicity against human OVCAR3 cells at 10 uM after 48 hrs by SRB assay; format: functional; settings: OVCAR-3, 48 h, read-out: GI
[17] = test system: IGROV-1; test: Cytotoxicity against human IGROV1 cells at 10 uM after 48 hrs by SRB assay; format: functional; settings: IGROV-1, 48 h, read-out: GI
[18] = test system: UACC-62; test: Cytotoxicity against human UACC62 cells at 10 uM after 48 hrs by SRB assay; format: functional; settings: UACC-62, 48 h, read-out: GI
[19] = test system: SK-MEL-2; test: Cytotoxicity against human SK-MEL-2 cells at 10 uM after 48 hrs by SRB assay; format: functional; settings: SK-MEL-2, 48 h, read-out: GI
[20] = test system: M14; test: Cytotoxicity against human M14 cells at 10 uM after 48 hrs by SRB assay; format: functional; settings: M14, 48 h, read-out: GI
[21] = test system: U-251; test: Cytotoxicity against human U251 cells at 10 uM after 48 hrs by SRB assay; format: functional; settings: U-251, 48 h, read-out: GI
[22] = test system: LOX IMVI; test: Cytotoxicity against human LOXIMVI cells at 10 uM after 48 hrs by SRB assay; format: functional; settings: read-out: GI
[23] = test system: SNB-19; test: Cytotoxicity against human SNB19 cells at 10 uM after 48 hrs by SRB assay; format: functional; settings: SNB-19, 48 h, read-out: GI
[24] = test system: SF-539; test: Cytotoxicity against human SF539 cells at 10 uM after 48 hrs by SRB assay; format: functional; settings: SF-539, 48 h, read-out: GI
[25] = test system: SF-268; test: Cytotoxicity against human SF268 cells at 10 uM after 48 hrs by SRB assay; format: functional; settings: SF-268, 48 h, read-out: GI
[26] = test system: KM12; test: Cytotoxicity against human KM12 cells at 10 uM after 48 hrs by SRB assay; format: functional; settings: KM12, 48 h, read-out: GI
[27] = test system: HT-29; test: Cytotoxicity against human HT-29 cells at 10 uM after 48 hrs by SRB assay; format: functional; settings: HT-29, 48 h, read-out: GI
[28] = test system: HCT-15; test: Cytotoxicity against human HCT15 cells at 10 uM after 48 hrs by SRB assay; format: functional; settings: HCT-15, 48 h, read-out: GI
[29] = test system: HCT-116; test: Cytotoxicity against human HCT116 cells at 10 uM after 48 hrs by SRB assay; format: functional; settings: HCT-116, 48 h, read-out: GI
[30] = test system: COLO 205; test: Cytotoxicity against human COLO205 cells at 10 uM after 48 hrs by SRB assay; format: functional; settings: COLO 205, 48 h, read-out: GI
[31] = test system: NCI-H522; test: Cytotoxicity against human NCI-H522 cells at 10 uM after 48 hrs by SRB assay; format: functional; settings: NCI-H522, 48 h, read-out: GI
[32] = test system: NCI-H460; test: Cytotoxicity against human NCI-H460 cells at 10 uM after 48 hrs by SRB assay; format: functional; settings: NCI-H460, 48 h, read-out: GI
[33] = test system: NCI-H322M; test: Cytotoxicity against human NCI-H322M cells at 10 uM after 48 hrs by SRB assay; format: functional; settings: read-out: GI
[34] = test system: NCI-H226; test: Cytotoxicity against human NCI-H226 cells at 10 uM after 48 hrs by SRB assay; format: functional; settings: NCI-H226, 48 h, read-out: GI
[35] = test system: NCI-H23; test: Cytotoxicity against human NCI-H23 cells at 10 uM after 48 hrs by SRB assay; format: functional; settings: NCI-H23, 48 h, read-out: GI
[36] = test system: HOP-92; test: Cytotoxicity against human HOP92 cells at 10 uM after 48 hrs by SRB assay; format: functional; settings: HOP-92, 48 h, read-out: GI
[37] = test system: A549; test: Cytotoxicity against human A549 cells at 10 uM after 48 hrs by SRB assay; format: functional; settings: A549, 48 h, read-out: GI
[38] = test system: MOLT-4; test: Cytotoxicity against human MOLT4 cells at 10 uM after 48 hrs by SRB assay; format: functional; settings: MOLT-4, 48 h, read-out: GI
[39] = test system: RPMI-8226; test: Cytotoxicity against human RPMI8226 cells at 10 uM after 48 hrs by SRB assay; format: functional; settings: RPMI-8226, 48 h, read-out: GI
[40] = test system: K562; test: Cytotoxicity against human K562 cells at 10 uM after 48 hrs by SRB assay; format: functional; settings: K562, 48 h, read-out: GI
[41] = test system: HL-60(TB); test: Cytotoxicity against human HL-60(TB) cells at 10 uM after 48 hrs by SRB assay; format: functional; settings: HL-60, 48 h, read-out: GI

`C=CCn1c(C)nc2ccc(Nc3nc(N4CCN(C)CC4)nc4ccccc34)cc21` gave a logD [1] of 1.03, an inhibition of growth at 10 µM [2] of under 10% and an inhibition of growth at 10 µM [3] of 20.6%. The inhibition of growth at 10 µM [4] was 22.8%, the inhibition of growth at 10 µM [5] was under 10% and the inhibition of growth at 10 µM [6] was 34.2%. It also gave an inhibition of growth at 10 µM [7] of 25.9%, an inhibition of growth at 10 µM [8] of under 10% and an inhibition of growth at 10 µM [9] of under 10%. The inhibition of growth at 10 µM [10] was under 10%, the inhibition of growth at 10 µM [11] was under 10% and the inhibition of growth at 10 µM [12] was under 10%. For the same compound, the inhibition of growth at 10 µM [13] was 23.4%, the inhibition of growth at 10 µM [14] was 16.5% and the inhibition of growth at 10 µM [15] was 20.7%. The inhibition of growth at 10 µM [16] was under 10%, the inhibition of growth at 10 µM [17] was under 10% and the inhibition of growth at 10 µM [18] was under 10%. It also gave an inhibition of growth at 10 µM [19] of under 10%, an inhibition of growth at 10 µM [20] of under 10% and an inhibition of growth at 10 µM [21] of 10.2%. For the same compound, the inhibition of growth at 10 µM [22] was 18%, the inhibition of growth at 10 µM [23] was under 10% and the inhibition of growth at 10 µM [24] was 23.5%. The inhibition of growth at 10 µM [25] was under 10%, the inhibition of growth at 10 µM [26] was 20.5% and the inhibition of growth at 10 µM [27] was 42.6%. For the same compound, the inhibition of growth at 10 µM [28] was 10.1%, the inhibition of growth at 10 µM [29] was 33% and the inhibition of growth at 10 µM [30] was 23.6%. The inhibition of growth at 10 µM [31] was under 10%, the inhibition of growth at 10 µM [32] was under 10% and the inhibition of growth at 10 µM [33] was under 10%. For the same compound, the inhibition of growth at 10 µM [34] was 13.6%, the inhibition of growth at 10 µM [35] was 19.2% and the inhibition of growth at 10 µM [36] was 42.4%. It also gave an inhibition of growth at 10 µM [37] of under 10%, an inhibition of growth at 10 µM [38] of 43.1% and an inhibition of growth at 10 µM [39] of 28.5%. It also gave an inhibition of growth at 10 µM [40] of 37.8% and an inhibition of growth at 10 µM [41] of under 10%.
